28 compounds from US5021421A, “2-(1-Piperazinyl)-4-phenylcycloalkanopyridine derivatives, processes for the production thereof, and pharmaceutical composition containing the same” (Dainippon Pharmaceutical Co., Ltd., priority 1989, dated 1991) can be followed below.

For experiment [1], the system named is brain monoamine metabolites. As to the kind of experiment: Increasing effect on concentration of brain monoamine metabolites. Type of experiment: in vivo, mice (Std-ddy strain). The note with it: Mus musculus, 2 h, non-dosed=100. As for the experimental part:
A group of 5 male mice (Std-ddy strain, 25-30 g) was used for examining effect of the test compounds on concentration of brain monoamine metabolites.
Mice were killed by decapitation 2 hours after treatment with the test compounds. Brains were quickly taken out, homogenized in 1N formic acid-acetone solution, and centrifuged in a refrigerated ultracentrifuge. The supernatant was evaporated by blowing with N2 gas. Then, the residue was again resolved in 0.01 N acetic acid, and served for determining concentration of dopamine metabolites, 3,4-dihydroxyphenylacetic acid (DOPAC) and homovanillic acid (HVA), a norepinephrine metabolite, 3-methyl-4-hydroxyphenylethylene glycol (MOPEG), and a serotonin metabolite, 5-hydroxyindole-3-acetic acid (5-HIAA) concentrations by HPLC with electrochemical detection. The effect of the test compounds on concentration of each monoamine metabolite is shown as % of control (level of non-dosed animals=100) in Table 4.

Experiment [2] has as its system apomorphine-induced vomiting. Nature of the experiment: Antagonistic effect on apomorphine-induced vomiting. The note with it: Canis lupus familiaris, sc, apomorphine 0.3 mg/kg s.c. 2 h after compound, read-out: Inhibitory ratio (apomorphine-induced vomiting). Type of experiment: in vivo, dogs (Beagle). As for the experimental part:
A group of 3-4 dogs (Beagle, 8-15 kg) was used for examining effects on the test compounds on apomorphine-induced vomiting, a known test for evaluating neuroleptic drugs.
Each dog was given a subcutaneous injection of apomorphine hydrochloride (0.3 mg/kg) two hours after the treatment of the test compounds. Then, the frequency of oral vomiting was counted for one hour. The mean counts of the compound-treated group were compared with those of the corresponding control (non-dosed) group, and the percent inhibition was calculated.

The mark [3] stands for this setting: read-out: 5-HIAA concentration, % of control.
Setting [4] is: read-out: DOPAC concentration, % of control.
[5] abbreviates: read-out: HVA concentration, % of control.
The mark [6] stands for this setting: read-out: MOPEG concentration, % of control.

Molecules are shown by their SMILES. Structures can show the parent of a compound that is named as a salt. Where two headings read alike, the source gives them in different places.

For `OCCN1CCN(c2cc(-c3ccccc3)c3c(n2)CCCCC3)CC1` [Example 24], the response vs control in vivo at 10 mg/kg in experiment [1] (setting [3]) was 150%; in experiment [1] (setting [4]), 290%; in experiment [1] (setting [5]) it was 317%; in experiment [1] (setting [6]), 139%.
On to `OCCN1CCN(c2cc(-c3ccc(F)cc3)c3c(n2)CCCCC3)CC1` [Example 26], for which the values for the response vs control in vivo at 10 mg/kg in experiment [1] (setting [4]) and in experiment [1] (setting [5]) were 344% and 263%, respectively.
Take `CCN1CCN(c2cc(-c3cccc(F)c3)c3c(n2)CCCCC3)CC1` [Example 27]: the inhibition in vivo at 3 mg/kg in experiment [2] came out at 47%. In addition, the response vs control in vivo at 10 mg/kg in experiment [1] (setting [4]) came to 208%; in experiment [1] (setting [5]) it was 193%.
Regarding `CCN1CCN(c2cc(-c3ccccc3F)c3c(n2)CCCCC3)CC1` [Example 29], the inhibition in vivo at 3 mg/kg in experiment [2] was determined as 63%. Moreover, the response vs control in vivo at 10 mg/kg came to 296% in experiment [1] (setting [4]) and 274% in experiment [1] (setting [5]).
With `Cc1ccc(-c2cc(N3CCN(CCO)CC3)nc3c2CCCCC3)cc1` [Example 35], the response vs control in vivo at 10 mg/kg stood at 165% in experiment [1] (setting [4]) and 170% in experiment [1] (setting [5]).
In the case of `OCCN1CCN(c2cc(-c3ccc(F)cc3)c3c(n2)CCCCCC3)CC1` [Example 37, 2-[4-(2-Hydroxyethyl)-1-piperazinyl]-4-(4-fluorophenyl)-5,6,7,8,9,10-hexahydrocycloocta[b]pyridine], the inhibition in vivo at 0.3 mg/kg in experiment [2] (dose 0.3 mg/kg) amounted to 80%. For the same compound, the response vs control in vivo at 3 mg/kg came out at 95% in experiment [1] (setting [3]), 268% in experiment [1] (setting [4]), 203% in experiment [1] (setting [5]) and 143% in experiment [1] (setting [6]).
For `Fc1ccc(-c2cc(N3CCN(C4CCCCC4)CC3)nc3c2CCCCCC3)cc1` [Example 39], the response vs control in vivo at 10 mg/kg in experiment [1] (setting [3]) was 97%; in experiment [1] (setting [4]), 307%; in experiment [1] (setting [5]), 233%; in experiment [1] (setting [6]), 117%.
On to `CCN1CCN(c2cc(-c3cccc(F)c3)c3c(n2)CCCCCC3)CC1` [Example 42], for which the response vs control in vivo at 10 mg/kg in experiment [1] (setting [4]) came out at 258%; in experiment [1] (setting [5]), 211%.
Consider `CCN1CCN(c2cc(-c3ccccc3F)c3c(n2)CCCCCC3)CC1` [Example 43], for which, in experiment [2], the inhibition in vivo at 1 mg/kg was 96%.
`CCN1CCN(c2cc(-c3ccc(Cl)cc3)c3c(n2)CCCCCC3)CC1` [Example 44]: the response vs control in vivo at 10 mg/kg in experiment [1] (setting [4]) worked out at 272%; in experiment [1] (setting [5]), 210%.
Turning to `CCN1CCN(c2cc(-c3cccc(Cl)c3)c3c(n2)CCCCCC3)CC1` [Example 46], the results for the response vs control in vivo at 10 mg/kg in experiment [1] (setting [4]) and in experiment [1] (setting [5]) were 296% and 235%, respectively.
As for `CCN1CCN(c2cc(-c3ccc(OC)cc3)c3c(n2)CCCCCC3)CC1` [Example 49, 2-(4-Ethyl-1-piperazinyl)-4-(4-methoxyphenyl)-5,6,7,8,9,10-hexahydrocycloocta[b]pyridine], the response vs control in vivo at 10 mg/kg in experiment [1] (setting [4]) was 197%; in experiment [1] (setting [5]) it was 195%.
For `Cc1ccc(-c2cc(N3CCN(CCO)CC3)nc3c2CCCCCC3)cc1` [Example 52] the same measures were 233% and 216%.
With `CCN1CCN(c2cc(-c3ccc(F)c(F)c3)c3c(n2)CCCCCC3)CC1` [Example 54], the response vs control in vivo at 2 mg/kg in experiment [1] (setting [4]) was found to be 251%; in experiment [1] (setting [5]), 250%.
For `CCN1CCN(c2cc(-c3c(F)cccc3F)c3c(n2)CCCCCC3)CC1` [Example 55], the response vs control in vivo at 2 mg/kg in experiment [1] (setting [4]) came to 379%; in experiment [1] (setting [5]), 240%.
For the compound `CCN1CCN(c2cc(-c3ccc(F)cc3)c3c(n2)CCC(C)C3)CC1` (stereo not drawn) [Example 59], the response vs control in vivo at 2 mg/kg in experiment [1] (setting [3]) was determined as 106%; in experiment [1] (setting [4]), 246%; in experiment [1] (setting [5]), 236%; in experiment [1] (setting [6]), 126%.
Take `CCN1CCN(c2cc(-c3ccc(F)cc3)c3c(n2)CC(C)(C)CC3C)CC1` (stereo not drawn) [Example 68]: the response vs control in vivo at 2 mg/kg is 206% in experiment [1] (setting [4]) and 181% in experiment [1] (setting [5]).
Regarding `COCCN1CCN(c2cc(-c3ccc(F)cc3)c3c(n2)CCCCCC3)CC1` [Example 82, 2-[4-(2-Methoxyethyl)-1-piperazinyl]-4-(4-fluorophenyl)-5,6,7,8,9,10-hexahydrocycloocta[b]pyridine dimaleate], in experiment [2], the inhibition in vivo at 1 mg/kg stood at 100%.
Consider `CC1CN(c2cc(-c3ccc(F)cc3)c3c(n2)CCCCCC3)CC(C)N1` (stereo not drawn) [Example 84, 2-(3,5-Dimethyl-1-piperazinyl)-4-(4-fluorophenyl)-5,6,7,8,9,10-hexahydrocycloocta[b]pyridine 1/2 fumarate], for which the response vs control in vivo at 10 mg/kg in experiment [1] (setting [4]) is 237%; in experiment [1] (setting [5]), 216%.
With `Fc1ccc(-c2cc(N3CCNCC3)nc3c2CCCCCC3)cc1` [Example 104, 2-(1-piperazinyl)-4-(4-fluorophenyl)-5,6,7,8,9,10-hexahydrocycloocta[b]pyridine], the response vs control in vivo at 10 mg/kg turned out to be 97% in experiment [1] (setting [3]), 344% in experiment [1] (setting [4]), 247% in experiment [1] (setting [5]) and 160% in experiment [1] (setting [6]).
For the compound `CC1CN(c2cc(-c3ccc(F)cc3)c3c(n2)CCCCCC3)CCN1C` (stereo not drawn) [Example 116, 2-(3,4-Dimethyl-1-piperazinyl)-4-(4-fluorophenyl)-5,6,7,8,9,10-hexahydrocycloocta[b]pyridine fumarate 1/4 hydrate], in experiment [2], the inhibition in vivo at 1 mg/kg is 100%.
With `C[C@@H]1CN(c2cc(-c3ccc(F)cc3)c3c(n2)CCCCCC3)C[C@H](C)N1C` [Example 117, 2-(cis-3,5-Dimethyl-4-methyl-1-piperazinyl)-4-(4-fluorophenyl)-5,6,7,8,9,10-hexahydrocycloocta[b]pyridine fumarate], the response vs control in vivo at 10 mg/kg in experiment [1] (setting [3]) came to 100%; in experiment [1] (setting [4]), 242%; in experiment [1] (setting [5]), 210%; in experiment [1] (setting [6]), 133%.
For `CCCCCCN1CCN(c2cc(-c3ccc(F)cc3)c3c(n2)CCCCCC3)CC1` [Example 124] the same measures were 107%, 292%, 238% and 102%.
Take `CCN1CCN(c2cc(-c3ccc(F)cc3F)c3c(n2)CCCCC3)CC1` [Example 131, 2-(4-ethyl-1-piperazinyl)-4-(2,4-difluorophenyl)-6,7,8,9-tetrahydro-5H-cyclohepta[b]pyridine]: the response vs control in vivo at 1 mg/kg in experiment [1] (setting [4]) is 319%; in experiment [1] (setting [5]), 224%.
Consider `CCN1CCN(c2cc(-c3ccc(F)cc3F)c3c(n2)CCC3)CC1` [Example 132, 2-(4-ethyl-1-piperazinyl)-4-(2,4-difluorophenyl)-6,7-dihydro-5H-1-pyrindin], for which the figures for the response vs control in vivo at 10 mg/kg in experiment [1] (setting [4]) and in experiment [1] (setting [5]) were 333% and 209%, respectively.
On to `CCN1CCN(c2cc(-c3ccc(F)cc3F)c3c(n2)C2CCC3C2)CC1` (stereo not drawn) [Example 135, 2-(4-ethyl-1-piperazinyl)-4-(2,4-difluorophenyl)-5,6,7,8-tetrahydro-5,8-methanoquinoline], for which the inhibition in vivo at 1 mg/kg in experiment [2] was determined as 100%.
As for `OCCCN1CCN(c2cc(-c3ccc(F)cc3)c3c(n2)CCCCCC3)CC1` [Example 138, 2-[4-(3-hydroxypropyl)-1-piperazinyl]-4-(4-fluorophenyl)-5,6,7,8,9,10-hexahydrocycloocta[b]pyridine], the response vs control in vivo at 2 mg/kg in experiment [1] (setting [4]) was found to be 236%; in experiment [1] (setting [5]) it was 173%.
For `CC(=O)OCCN1CCN(c2cc(-c3ccc(F)cc3)c3c(n2)CCCCCC3)CC1` [Example 139, 2-[4-(2-acetoxyethyl)-1-piperazinyl]-4-(4-fluorophenyl)-5,6,7,8,9,10-hexahydrocycloocta[b]pyridine], the response vs control in vivo at 10 mg/kg in experiment [1] (setting [4]) was 267%; in experiment [1] (setting [5]), 206%.
